“Also recorded” adds a separate entry of the source.
Experiments:
[1] = system: raskol Drosophila eye phenotype; assay: Eye phenotype recovery assay (eye size) over several drug concentrations, SYNGAP1 (raskol) knockdown flies; assay type: in vivo, Drosophila melanogaster; conditions: for Effect on eye phenotype recovery (eye size): Example 38, multiple drug dilutions vs control
Description: Increased eye size over control (dark grey) indicates improved phenotype. […]
FIG. 42B depicts the eye size effect of NADL, L-Leucine and beta-hydroxyisovaleric acid on raskol Drosophila eye phenotype over multiple drug dilutions from Example 38.
A prioritized list of top hits was developed to further validate. Priority was place on actionable, safe, and biologically relevant drugs. To validate a top hit, the effect of each drug was tested over three doses. Three concentrations (1, 5, and 25 uM) were compared to a no drug control.

mTORC1 = mTORC1 (Homo sapiens, UniProt P42345); conditions: cited from earlier work
[2] = system: raskol Drosophila eye phenotype; assay: Drug screen (Prestwick Chemical Library) for rescue of degenerate eye in Drosophila model of SYNGAP1; assay type: in vivo, Drosophila melanogaster; conditions: screen of over 1520 drugs; Z scores >1 indicated improved phenotype
Description: The invention is also directed in part to a Drosophila melanogaster (fruit fly) model of SYNGAP1. The model is based on eye-specific RNAi knockdown of SYNGAP1, which is called raskol gene in flies. RNAi knockdown of the raskol gene in the eye of Drosophila results in a smaller, degenerate eye (FIG. 1). In one embodiment, the model is used to screen drug that rescue the degenerate eye phenotype in Drosophila melanogaster.
FIG. 7 is a graph of the Z-score of chemical effects on raskol Drosophila eye phenotype. Z scores >1 indicated improved phenotype; Z scores <1 indicated worsened phenotype. The arrow indicates the Z-score positioning of N-Acetyl-L-leucine (NALL).
Drosophila (fruit fly) model of SYNGAP1 was generated. This model is partial loss of function of SYNGAP1, similar to what is observed in humans.
To generate the model, fruit flies were engineered to eliminate SYNGAP1 gene expression in the eye. In flies, the gene is called raskol but herein referred to as SYNGAP1 for clarity. Eye-specific knockdown of SYNGAP1 using RNAi was used. RNAi knockdown of SYNGAP in the eye results in a smaller, disorganized and degenerate eye (FIG. 5).
The model allows for ascertaining therapeutic efficacy of a compound. The efficacy is evidenced by restoration of normal eye appearance upon treatment with the compound. […]

raskol Drosophila = assay: Induced seizures in raskol Drosophila; assay type: in vivo, Drosophila melanogaster; conditions: compared to untreated or NADL treated raskol Drosophila
Description: In addition to the degenerate eye phenotype, raskol Drosophila are prone to induced seizures, as compared to wild type Drosophila.

[3] = system: tyrosine catabolic process; assay: RNAseq of untreated vs NALL-treated raskol Drosophila; assay type: in vivo, Drosophila melanogaster; conditions: NALL-treated vs untreated raskol flies; TAT, HPD, FAA
Method: Enzymes TAT, HPD, FAA highlight the differences in RNA expression in the presence of NALL treatment; molecules are all associated with the tyrosine catabolic process.
Finally, RNAseq was performed to compare gene regulation differences between raskol Drosophila untreated and NALL-treated flies.

LAT1 = LAT1 (Homo sapiens, UniProt Q01650); conditions: cited from earlier work
[4] = system: mice with experimental traumatic brain injury; conditions: cited from earlier work
[5] = system: patients with cerebellar ataxia; conditions: 12 out of 20 individuals; cited from earlier work
[6] = system: animals following unilateral labyrinthectomy; conditions: only minor effects on normal vestibular function; cited from earlier work

Sequence of LAT1 (Q01650 whole entry, species assumed): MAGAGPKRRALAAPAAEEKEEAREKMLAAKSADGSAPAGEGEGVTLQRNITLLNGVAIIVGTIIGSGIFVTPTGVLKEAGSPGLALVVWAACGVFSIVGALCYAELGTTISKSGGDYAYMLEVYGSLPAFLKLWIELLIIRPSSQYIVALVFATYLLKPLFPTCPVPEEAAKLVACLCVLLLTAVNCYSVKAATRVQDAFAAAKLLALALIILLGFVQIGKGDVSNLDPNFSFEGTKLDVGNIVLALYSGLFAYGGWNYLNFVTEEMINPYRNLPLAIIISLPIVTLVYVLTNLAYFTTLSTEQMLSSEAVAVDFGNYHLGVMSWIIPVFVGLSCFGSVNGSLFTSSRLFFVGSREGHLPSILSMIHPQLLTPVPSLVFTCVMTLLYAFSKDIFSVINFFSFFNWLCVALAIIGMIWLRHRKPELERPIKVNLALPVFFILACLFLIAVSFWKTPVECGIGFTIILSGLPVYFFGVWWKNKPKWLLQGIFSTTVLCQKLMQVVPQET
Sequence of LAT1 (P08195 102-630 partner, species assumed): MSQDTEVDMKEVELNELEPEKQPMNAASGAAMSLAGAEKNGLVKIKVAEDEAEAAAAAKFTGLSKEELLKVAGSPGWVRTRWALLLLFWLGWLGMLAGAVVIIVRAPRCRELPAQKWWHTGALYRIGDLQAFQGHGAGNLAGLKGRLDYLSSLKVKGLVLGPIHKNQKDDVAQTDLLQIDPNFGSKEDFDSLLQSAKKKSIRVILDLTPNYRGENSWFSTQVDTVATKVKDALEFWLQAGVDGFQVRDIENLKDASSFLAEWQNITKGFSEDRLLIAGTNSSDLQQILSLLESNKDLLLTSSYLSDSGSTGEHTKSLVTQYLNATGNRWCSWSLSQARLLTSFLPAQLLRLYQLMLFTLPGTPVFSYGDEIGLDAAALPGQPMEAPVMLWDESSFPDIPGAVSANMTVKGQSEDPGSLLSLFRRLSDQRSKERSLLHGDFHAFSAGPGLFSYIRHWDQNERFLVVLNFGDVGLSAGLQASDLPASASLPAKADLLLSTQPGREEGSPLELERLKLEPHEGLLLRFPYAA

CC(C)C[C@H](N)C(=O)O [L-Leucine]
Effect on eye phenotype recovery (eye size) [1]: do not have a significant effect; also recorded: neither NADL nor L-Leucine have a significant effect | Effect on mTORC1 (mTORC1): activates

CC(=O)N[C@H](CC(C)C)C(=O)O [NADL, N-acetyl-D-leucine]
Effect on eye phenotype recovery (eye size) [1]: do not have a significant effect; also recorded: neither NADL nor L-Leucine have a significant effect

CC(=O)N[C@@H](CC(C)C)C(=O)O [NALL, N-acetyl-L-leucine]
Z-score of chemical effects on raskol Drosophila eye phenotype [2]: 1.35 | Effect on eye phenotype recovery (eye size) [1]: significant effect on phenotype recovery, as was observed with NALL | Eye phenotype in validation of top hit ([1]; three concentrations (1, 5, and 25 uM) vs no drug control): larger, more organized, less degenerate eye | Recovery time after induced seizures (raskol Drosophila): faster recovery time | Gene regulation differences by RNAseq [3]: Down regulated genes were enriched for tyrosine catabolic processes | Binding or blocking of LAT1 (LAT1): neither binds nor blocks | Effect on mTORC1 (mTORC1): inhibit or negatively regulate | Autophagy in cortical tissue ([4]; reduced accumulation of autophagosome markers vs controls): increase in autophagy | Motor and cognitive outcomes ([4]; treated mice vs controls): significant improvement in motor and cognitive outcomes

CC(=O)N[C@@H](CC(C)C)C(=O)O [acetyl-leucine]
Individuals with significant improvements in ataxia [5]: 60% | Vestibular compensation [6]: accelerate vestibular compensation

CC(C)(O)CC(=O)O [beta-hydroxyisovaleric acid, Beta-hydroxyisovaleric acid]
Effect on eye phenotype recovery (eye size) [1]: do not have a significant effect

Source: US12403111B2, “Compositions and methods for treating neurodevelopmental disorders” (SynGAP Research Fund, priority 2024, dated 2025)
